According to patent US20220112187A1, “PYRAZOLOPYRIDINE AMINE COMPOUNDS FOR THE TREATMENT OF AUTOIMMUNE DISEASE” (Hoffmann-La Roche Inc., priority 2018, published 2022):

Biological target: T1, human TLR8 (Homo sapiens, UniProt Q9NR97)
T1 sequence (Q9NR97 27-1041): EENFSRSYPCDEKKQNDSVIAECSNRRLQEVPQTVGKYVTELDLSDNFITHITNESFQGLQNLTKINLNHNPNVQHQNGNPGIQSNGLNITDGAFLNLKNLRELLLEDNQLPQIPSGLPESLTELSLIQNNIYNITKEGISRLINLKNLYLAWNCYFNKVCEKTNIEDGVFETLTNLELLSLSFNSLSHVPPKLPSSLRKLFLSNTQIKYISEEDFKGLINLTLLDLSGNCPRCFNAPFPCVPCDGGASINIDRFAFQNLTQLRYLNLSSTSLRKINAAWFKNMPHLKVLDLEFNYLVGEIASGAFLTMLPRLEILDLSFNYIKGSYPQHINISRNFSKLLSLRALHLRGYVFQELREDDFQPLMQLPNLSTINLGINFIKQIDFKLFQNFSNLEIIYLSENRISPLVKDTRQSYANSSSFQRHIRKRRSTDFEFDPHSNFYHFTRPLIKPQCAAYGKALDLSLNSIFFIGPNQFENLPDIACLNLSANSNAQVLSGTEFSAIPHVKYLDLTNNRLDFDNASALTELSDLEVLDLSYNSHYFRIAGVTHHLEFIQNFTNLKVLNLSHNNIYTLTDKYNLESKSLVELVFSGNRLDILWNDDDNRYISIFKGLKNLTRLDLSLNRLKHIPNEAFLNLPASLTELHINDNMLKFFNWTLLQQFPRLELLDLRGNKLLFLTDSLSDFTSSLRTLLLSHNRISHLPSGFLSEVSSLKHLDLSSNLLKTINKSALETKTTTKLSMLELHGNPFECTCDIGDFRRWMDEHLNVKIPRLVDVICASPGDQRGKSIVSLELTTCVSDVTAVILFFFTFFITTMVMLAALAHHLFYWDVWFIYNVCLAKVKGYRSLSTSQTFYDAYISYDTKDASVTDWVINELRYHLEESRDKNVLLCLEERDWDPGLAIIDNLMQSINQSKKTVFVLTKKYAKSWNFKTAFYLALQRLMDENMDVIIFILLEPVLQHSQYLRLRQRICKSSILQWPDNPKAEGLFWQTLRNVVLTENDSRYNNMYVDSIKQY
Assay: HEK293-Blue-hTLR-8 cells assay (SEAP reporter, R848 stimulation)
Assay type: cell-based
Settings: HEK293-Blue-hTLR8 cells, R848 ligand, 20 hrs incubation
Source text: A stable HEK293-Blue-hTLR-8 cell line was purchased from InvivoGen (Cat. #: hkb-htlr8, San Diego, Calif., USA). These cells were originally designed for studying the stimulation of human TLR8 by monitoring the activation of NF-κB. A SEAP (secreted embryonic alkaline phosphatase) reporter gene was placed under the control of the IFN-β minimal promoter fused to five NF-κB and AP-1-binding sites. The SEAP was induced by activating NF-κB and AP-1 via stimulating HEK-Blue hTLR8 cells with TLR8 ligands. Therefore the reporter expression was declined by TLR8 antagonist under the stimulation of a ligand, such as R848, for incubation of 20 hrs. The cell culture supernatant SEAP reporter activity was determined using QUANTI-Blue™ kit (Cat. #: rep-qb1, Invivogen, San Diego, Ca, USA) at a wavelength of 640 nm, a detection medium that turns purple or blue in the presence of alkaline phosphatase.
HEK293-Blue-hTLR8 cells were incubated at a density of 250,000˜450,000 cells/mL in a volume of 170 μL in a 96-well plate in Dulbecco's Modified Eagle's medium (DMEM) containing 4.5 g/L glucose, 50 U/mL penicillin, […], […], 2 mM L-glutamine, 10% (v/v) heat-inactivated fetal bovine serum with addition of 20 μL test compound in a serial dilution in the presence of final DMSO at 1% and 10 μL of 60 uM R848 in above DMEM, perform incubation under 37° C. in a CO2 incubator for 20 hrs. Then 20 μL of the supernatant from each well was incubated with 180 μL Quanti-blue substrate solution at 37° C. for 2 hrs and the absorbance was read at 620˜655 nm using a spectrophotometer. The signalling pathway that TLR8 activation leads to downstream NF-κB activation has been widely accepted, and therefore similar reporter assay was modified for evaluating TLR8 antagonist.

SMILES | IC50 [nM]
C[C@@H]1CN(c2ccc(C#N)n3nccc23)C[C@H](CN2C[C@H]3CC[C@@H](N(C)C)[C@H]3C2)O1 (racemic) [Example 75, 4-[(2S,6R)-2-[[4-(dimethylamino)-3,3a,4,5,6,6a-hexahydro-1H-cyclopenta[c]pyrrol-2-yl]methyl]-6-methyl-morpholin-4-yl]pyrazolo[1,5-a]pyridine-7-carbonitrile] | 600
CC1CNCCN1C[C@H]1CN(c2ccc(C#N)n3nccc23)C[C@@H](C)O1 (single isomer, unassigned) [Example 50A] | 64
CC1CNCCN1C[C@H]1CN(c2ccc(C#N)n3nccc23)C[C@@H](C)O1 (single isomer, unassigned) [Example 50B] | 52
C[C@@H]1CN(c2ccc(C#N)n3nccc23)C[C@H](CN2CCC(N3CCN(C)CC3)CC2)O1 [Example 1, 4-[(2R,6S)-2-methyl-6-[[4-(4-methylpiperazin-1-yl)-1-piperidyl]methyl]morpholin-4-yl]pyrazolo[1,5-a]pyridine-7-carbonitrile] | 28
C[C@@H]1CN(c2ccc(C#N)n3nccc23)C[C@H](CN2CCC3(CCNCC3)CC2)O1 [Example 3, 4-[(2S,6R)-2-(3,9-diazaspiro[5.5]undecan-3-ylmethyl)-6-methyl-morpholin-4-yl]pyrazolo[1,5-a]pyridine-7-carbonitrile] | 620
C[C@@H]1CN(c2ccc(C#N)n3nccc23)C[C@H](CN2CCC(N3CCCCCC3)CC2)O1 [Example 4, 4-[(2S,6R)-2-[[4-(azepan-1-yl)-1-piperidyl]methyl]-6-methyl-morpholin-4-yl]pyrazolo[1,5-a]pyridine-7-carbonitrile] | 26
C[C@@H]1CN(c2ccc(C#N)n3nccc23)C[C@H](CN2CCNCC2)O1 [Example 5, 4-[(2R,6S)-2-methyl-6-(piperazin-1-ylmethyl)morpholin-4-yl]pyrazolo[1,5-a]pyridine-7-carbonitrile] | 78
C[C@@H]1CN(c2ccc(C#N)n3nccc23)C[C@H](CN2CCC3(CCNC3)C2)O1 (stereo partly drawn) [Example 6, 4-[(2S,6R)-2-(2,7-diazaspiro[4.4]nonan-2-ylmethyl)-6-methyl-morpholin-4-yl]pyrazolo[1,5-a]pyridine-7-carbonitrile] | 140
C[C@@H]1CN(c2ccc(C#N)n3nccc23)C[C@H](CNC2CCN(C)CC2)O1 [Example 7, 4-[(2R,6S)-2-methyl-6-[[(1-methyl-4-piperidyl)amino]methyl]morpholin-4-yl]pyrazolo[1,5-a]pyridine-7-carbonitrile] | 320
C[C@@H]1CN(c2ccc(C#N)n3nccc23)C[C@H](CN2CC3(CCCNC3)C2)O1 [Example 10, 4-[(2S,6R)-2-(2,8-diazaspiro[3.5]nonan-2-ylmethyl)-6-methyl-morpholin-4-yl]pyrazolo[1,5-a]pyridine-7-carbonitrile] | 130
C[C@@H]1CN(c2ccc(C#N)n3nccc23)C[C@H](CN2CC3(CC(N)C3)C2)O1 [Example 11, 4-[(2S,6R)-2-[(6-amino-2-azaspiro[3.3]heptan-2-yl)methyl]-6-methyl-morpholin-4-yl]pyrazolo[1,5-a]pyridine-7-carbonitrile] | 930
C[C@@H]1CN(c2ccc(C#N)n3nccc23)C[C@H](CN2CCC(CN)CC2)O1 [Example 12, 4-[(2S,6R)-2-[[4-(aminomethyl)-1-piperidyl]methyl]-6-methyl-morpholin-4-yl]pyrazolo[1,5-a]pyridine-7-carbonitrile] | 280
C[C@@H]1CN(c2ccc(C#N)n3nccc23)C[C@H](CN2CCC(CCN)CC2)O1 [Example 13, 4-[(2S,6R)-2-[[4-(2-aminoethyl)-1-piperidyl]methyl]-6-methyl-morpholin-4-yl]pyrazolo[1,5-a]pyridine-7-carbonitrile] | 740
C[C@@H]1CN(c2ccc(C#N)n3nccc23)C[C@H](CN2CCN(C(=O)CN)CC2)O1 [Example 14, 4-[(2S,6R)-2-[[4-(2-aminoacetyl)piperazin-1-yl]methyl]-6-methyl-morpholin-4-yl]pyrazolo[1,5-a]pyridine-7-carbonitrile] | 380
